Results: patent publication US20240262814A1, “MODULATORS OF TREX1” (Constellation Pharmaceuticals, Inc., priority 2021, published 2024)
pIC50: −log10 of the molar value.

Legend:
human TREX1 = molecular target: T1, human TREX1 (Homo sapiens, UniProt Q9NSU2); assay: hTREX1 Biochemical Assay (fluorescence, dsDNA substrate degradation); conditions: full length human TREX1, 4 h pre-incubation, 18 h reaction at 25° C.
T1 construct: N-terminally His-Tev tagged full length human TREX1; made in house; host or cells: E. coli
T1 sequence (Q9NSU2 1-314): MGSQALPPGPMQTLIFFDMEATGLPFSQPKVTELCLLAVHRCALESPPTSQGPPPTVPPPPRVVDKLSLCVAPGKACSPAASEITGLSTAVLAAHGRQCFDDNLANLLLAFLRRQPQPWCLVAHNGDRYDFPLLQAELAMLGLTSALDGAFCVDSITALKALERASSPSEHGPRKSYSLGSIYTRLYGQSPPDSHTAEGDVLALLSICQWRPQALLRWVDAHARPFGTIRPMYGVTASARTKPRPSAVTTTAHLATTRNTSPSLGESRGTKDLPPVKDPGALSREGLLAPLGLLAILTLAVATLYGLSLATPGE
Protocol: (§1) Degradation of the dsDNA liberates free fluorophore to produce a fluorescent signal. Specifically, 7.5 μL of N-terminally His-Tev tagged full length human TREX1 (expressed in E. coli and purified in house) in reaction buffer (50 mM Tris, 150 mM NaCl, 2 mM DTT, 0.1 mg/mL BSA, 0.01% (w/v) Tween-20, 5 mM MgCl2, pH 7.4) was added to a 384-well Black ProxiPlate Plus (PerkinElmer) which already contained compound (150 nL) at varying concentrations as a 10 point dose-response in DMSO. The plate was incubated at 25° C. for 4 hours. Reactions were initiated by adding 7.5 μL of dsDNA substrate (Strand A: 5′ TEX615/GCT AGG CAG 3′; Strand B: 5′ CTG CCT AGC/IAbRQSp (Integrated DNA Technologies)) in reaction buffer. Final concentrations were 4 pM TREX1, 60 nM dsDNA substrate in reaction buffer with 1.0% DMSO (v/v). After 18 hours at 25° C., reactions were quenched by the addition of 2 p L of 500 mM EDTA. Final concentrations in the quenched reaction were 3.5 pM TREX1, 53 nM DNA and 59 mM EDTA in a volume of 17 μL. After a 5-minute incubation at room temperature, plates were read in an EnVision plate reader (PerkinElmer) measuring fluorescence at 615 nm following excitation w/ 570 nm light. IC50 values were calculated by comparing the measured fluorescence at 615 nm relative to control wells pre-quenched w/ EDTA (100% inhibition) and no inhibitor (0% inhibition) controls as using non-linear least square four parameter fits and either Genedata or GraphPad Prism (GraphPad Software, Inc.).

human TREX2 = molecular target: T2, human TREX2 (Homo sapiens, UniProt Q9BQ50); assay: hTREX2 Biochemical Assay (selectivity hTREX1 vs hTREX2); conditions: biochemical selectivity for hTREX1 vs hTREX2
T2 construct: human TREX2 (residues M44-A279, expressed in E. coli); made in house; host or cells: E. coli
T2 sequence (Q9BQ50 44-279 isoform Q9BQ50-1): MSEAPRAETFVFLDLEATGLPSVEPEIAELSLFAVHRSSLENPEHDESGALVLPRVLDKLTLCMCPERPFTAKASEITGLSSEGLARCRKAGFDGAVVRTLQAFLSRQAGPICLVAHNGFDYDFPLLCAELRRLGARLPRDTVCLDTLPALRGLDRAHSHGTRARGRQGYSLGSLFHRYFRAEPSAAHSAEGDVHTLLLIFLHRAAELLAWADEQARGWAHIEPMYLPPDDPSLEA
Protocol: Degradation of the dsDNA liberates free fluorophore to produce a fluorescent signal. Specifically, 7.5 p L of N-terminally His-Tev tagged human TREX2 (residues M44-A279, expressed in E. coli and purified in house) in reaction buffer (50 mM Tris, 150 mM NaCl, 2 mM DTT, 0.1 mg/mL BSA, 0.01% (w/v) Tween-20, 5 mM MgCl2, pH 7.4) was added to a 384-well Black ProxiPlate Plus (PerkinElmer) which already contained compound (150 nL) at varying concentrations as a 10 point dose-response in DMSO. The plate was incubated at 25° C. for 4 hours. Reactions were initiated by adding 7.5 μL of dsDNA substrate (Strand A: 5′ TEX615/GCT AGG CAG 3′; Strand B: 5′ CTG CCT AGC/IAbRQSp (IDT)) in reaction buffer. Final concentrations were 50 pM TREX2, 60 nM dsDNA substrate in reaction buffer with 1.0% DMSO (v/v). After 18 hours at 25° C., reactions were quenched by the addition of 2 μL of 500 mM EDTA. Final concentrations in the quenched reaction mixture were 44 pM TREX2, 53 nM DNA and 59 mM EDTA in a volume of 17 μL. After a 5-minute incubation at room temperature, plates were read in an EnVision plate reader (PerkinElmer) measuring fluorescence at 615 nm following excitation w/ 570 nm light. IC50 values were calculated by comparing the measured fluorescence at 615 nm relative to control wells pre-quenched w/ stop buffer (100% inhibition) and no inhibitor (0% inhibition) controls as using non-linear least square four parameter fits and either Genedata or GraphPad Prism (GraphPad Software, Inc.).

mouse TREX1 = molecular target: T3, mouse TREX1 (Mus musculus, UniProt Q91XB0); assay: mTREX1 Biochemical Assay (fluorescence, dsDNA substrate degradation); conditions: full length mouse TREX1, 4 h pre-incubation, 18 h reaction at 25° C.
T3 construct: N-terminally His-Tev tagged full length mouse TREX1; made in house; host or cells: E. coli
T3 sequence (Q91XB0 1-314): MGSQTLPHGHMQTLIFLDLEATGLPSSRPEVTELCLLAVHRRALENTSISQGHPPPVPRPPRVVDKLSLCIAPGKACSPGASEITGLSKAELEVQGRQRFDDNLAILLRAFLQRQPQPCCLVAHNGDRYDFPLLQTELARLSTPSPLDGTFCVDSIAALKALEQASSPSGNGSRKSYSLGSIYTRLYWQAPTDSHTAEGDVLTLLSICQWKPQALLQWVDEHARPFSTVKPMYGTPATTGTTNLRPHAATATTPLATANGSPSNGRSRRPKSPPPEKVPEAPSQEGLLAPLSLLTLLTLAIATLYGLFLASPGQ
Protocol: as §1, with “Specifically, 7.5 p L of N-terminally” for “Specifically, 7.5 μL of N-terminally”, “full length mouse TREX1 (expressed” for “full length human TREX1 (expressed”, “concentrations were 6 pM TREX1,” for “concentrations were 4 pM TREX1,”, “reaction were 5.3 pM TREX1,” for “reaction were 3.5 pM TREX1,”, “of 17 p L. After a” for “of 17 μL. After a”

**Q.** How did the pIC50 (human TREX1) turn out when `CC(c1nc(C(=O)Nc2cnoc2)c(O)c(=O)n1C)C(c1ccccc1Cl)c1ccccc1C#N` (single isomer, unassigned) [Example 10 Isomer 2] was run?
**A.** 7.00 to 8.00

**Q.** What about the “hTREX1 vs hTREX2 selectivity” value (human TREX2) of the same compound?
**A.** B (B = 25 to 50 fold selective for hTREX1)

**Q.** What about the pIC50 (mouse TREX1) of the same compound?
**A.** < 8.00

**Q.** Which results are given for `CC(c1nc(C(=O)Nc2cnoc2)c(O)c(=O)n1C)C(c1ccccc1Cl)c1ccccc1C#N` (single isomer, unassigned) [Example 10 Isomer 3]?
**A.** pIC50 (human TREX1): > 9.00; hTREX1 vs hTREX2 selectivity (human TREX2): C (C = >50 fold selective for hTREX1); pIC50 (mouse TREX1): 8.00 to 9.00

**Q.** `CC(c1nc(C(=O)Nc2cnoc2)c(O)c(=O)n1C)C(c1ccccc1Cl)c1ccccc1C#N` (single isomer, unassigned) [Example 10 Isomer 4] was tested. Which pIC50 (human TREX1) did it give?
**A.** > 9.00

**Q.** What about the “hTREX1 vs hTREX2 selectivity” value (human TREX2) of the same compound?
**A.** C (C = >50 fold selective for hTREX1)

**Q.** What about the pIC50 (mouse TREX1) of the same compound?
**A.** 8.00 to 9.00

**Q.** Which results are given for `CC(c1nc(C(=O)Nc2cnoc2)c(O)c(=O)n1C)C(c1cc(F)cc(F)c1)c1ccccc1C#N` (single isomer, unassigned) [Example 11 Isomer 2]?
**A.** pIC50 (human TREX1): 8.00 to 9.00; hTREX1 vs hTREX2 selectivity (human TREX2): C (C = >50 fold selective for hTREX1); pIC50 (mouse TREX1): < 8.00

**Q.** What does the source list for `CC(c1nc(C(=O)Nc2cnoc2)c(O)c(=O)n1C)C(c1cc(F)cc(F)c1)c1ccccc1C#N` (single isomer, unassigned) [Example 11 Isomer 4]?
**A.** pIC50 (human TREX1): 8.00 to 9.00; hTREX1 vs hTREX2 selectivity (human TREX2): A (A = <25 fold selective for hTREX1); pIC50 (mouse TREX1): 8.00 to 9.00

**Q.** Which results are given for `CC(c1nc(C(=O)Nc2cnoc2)c(O)c(=O)n1C)C(c1ccc(F)c(F)c1)c1ccccc1C#N` (single isomer, unassigned) [Example 12 Isomer 1]?
**A.** pIC50 (human TREX1): 8.00 to 9.00; hTREX1 vs hTREX2 selectivity (human TREX2): C (C = >50 fold selective for hTREX1); pIC50 (mouse TREX1): < 8.00

**Q.** Which results are given for `CC(c1nc(C(=O)Nc2cnoc2)c(O)c(=O)n1C)C(c1ccc(F)c(F)c1)c1ccccc1C#N` (single isomer, unassigned) [Example 12 Isomer 3]?
**A.** pIC50 (human TREX1): > 9.00; hTREX1 vs hTREX2 selectivity (human TREX2): B (B = 25 to 50 fold selective for hTREX1); pIC50 (mouse TREX1): > 9.00

**Q.** Which results are given for `CC(c1nc(C(=O)Nc2cnoc2)c(O)c(=O)n1C)C(c1ccc(F)c(F)c1)c1ccccc1C#N` (single isomer, unassigned) [Example 12 Isomer 4]?
**A.** pIC50 (human TREX1): 7.00 to 8.00; hTREX1 vs hTREX2 selectivity (human TREX2): A (A = <25 fold selective for hTREX1); pIC50 (mouse TREX1): < 8.00

**Q.** `CC(c1nc(C(=O)Nc2cnoc2)c(O)c(=O)n1C)C(c1ccc(F)cc1F)c1ccccc1C#N` (single isomer, unassigned) [Example 13 Isomer 1] was tested. Which pIC50 (human TREX1) did it give?
**A.** > 9.00

**Q.** What about the “hTREX1 vs hTREX2 selectivity” value (human TREX2) of the same compound?
**A.** C (C = >50 fold selective for hTREX1)

**Q.** And the pIC50 (mouse TREX1)?
**A.** > 9.00

**Q.** With `CC(c1nc(C(=O)Nc2cnoc2)c(O)c(=O)n1C)C(c1ccc(F)cc1F)c1ccccc1C#N` (single isomer, unassigned) [Example 13 Isomer 2] as the compound, how does the pIC50 (human TREX1) read?
**A.** > 9.00

**Q.** And the “hTREX1 vs hTREX2 selectivity” value (human TREX2)?
**A.** C (C = >50 fold selective for hTREX1)

**Q.** What about the pIC50 (mouse TREX1) of the same compound?
**A.** 8.00 to 9.00

**Q.** How did the pIC50 (human TREX1) turn out when `CC(c1nc(C(=O)Nc2cnoc2)c(O)c(=O)n1C)C(c1ccc(F)cc1F)c1ccccc1C#N` (single isomer, unassigned) [Example 13 Isomer 3] was run?
**A.** 7.00 to 8.00

**Q.** What about the “hTREX1 vs hTREX2 selectivity” value (human TREX2) of the same compound?
**A.** B (B = 25 to 50 fold selective for hTREX1)

**Q.** And the pIC50 (mouse TREX1)?
**A.** < 8.00

**Q.** Which results are given for `C[C@H](c1nc(C(=O)Nc2cnoc2)c(O)c(=O)n1C)[C@H](c1ccccc1)c1ccccc1C(F)(F)F` (single isomer, unassigned) [Example 14 Isomer 1, 5-Hydroxy-N-(isoxazol-4-yl)-1-methyl-6-oxo-2-(1-phenyl-1-(2-(trifluoromethyl)phenyl)propan-2-yl)-1,6-dihydropyrimidine-4-carboxamide]?
**A.** pIC50 (human TREX1): < 7.00; hTREX1 vs hTREX2 selectivity (human TREX2): A (A = <25 fold selective for hTREX1); pIC50 (mouse TREX1): < 8.00

**Q.** How did the pIC50 (human TREX1) turn out when `C[C@H](c1nc(C(=O)Nc2cnoc2)c(O)c(=O)n1C)[C@H](c1ccccc1)c1ccccc1C(F)(F)F` (single isomer, unassigned) [Example 14 Isomer 4, 5-Hydroxy-N-(isoxazol-4-yl)-1-methyl-6-oxo-2-(1-phenyl-1-(2-(trifluoromethyl)phenyl)propan-2-yl)-1,6-dihydropyrimidine-4-carboxamide] was run?
**A.** 8.00 to 9.00

**Q.** And the “hTREX1 vs hTREX2 selectivity” value (human TREX2)?
**A.** B (B = 25 to 50 fold selective for hTREX1)

**Q.** What about the pIC50 (mouse TREX1) of the same compound?
**A.** < 8.00

**Q.** What does the source list for `C[C@H](c1nc(C(=O)Nc2cnoc2)c(O)c(=O)n1C)C(c1ccccc1Cl)c1ccccc1Cl` (single isomer, unassigned) [Example 15 Isomer 2, 2-(1,1-bis(2-chlorophenyl)propan-2-yl)-5-hydroxy-N-(isooxazol-4-yl)-1-methyl-6-oxo-1,6-dihydropyrimidine-4-carboxamide]?
**A.** pIC50 (human TREX1): < 7.00; hTREX1 vs hTREX2 selectivity (human TREX2): A (A = <25 fold selective for hTREX1); pIC50 (mouse TREX1): < 8.00
